Values after ≈ are worked out from the molar mass of the structure shown. Read-outs that look alike come from different tables or passages of the source. Bounds are passed on as bounds.

The values that follow come from patent US8404839B2, “Crystalline 4-(3-chloro-2-fluoroanilino)-7 methoxy-6-{[1-(N-methylcarbamoylmethyl)piperidin-4-yl]oxy} quinazoline difumarate Form A” (Astrazeneca AB, priority 2008, dated 2013).

A short description of one data set: Dynamic vapour sorption. It counts as physicochemical. Particulars: for hygroscopicity (in words): Dynamic Vapour Sorption. The procedure:
(ix) dynamic vapour sorption was measured using a SMS DVS (Surface Measurement Systems Limited, UK). Samples were analysed at 25° C. using a gas flow of 200 cubic centimeters per minute. The relative humidity (RH) was increased from 0% RH in steps of 10% RH to 80% RH with the final step of 95% RH. The sample was then desorbed using the same RH step pattern as the sorption; this procedure was then repeated in a second sorption/desorption cycle. Equilibration at each humidity step is set such that the rate of change of weight with time (minute) was 0.002%.

Data set [1] in a line: Aqueous solubility (HPLC UV). The data set is classed as physicochemical. Particulars: for solubility at 48 h: thermodynamic from solid, 25° C. Here is the method:
(xi) solubility in water was measured using HPLC UV.
The intrinsic dissolution rates of Compound (I) difumarate Form A and Compound (I) was also been measured in a range of aqueous buffers.

Data set [2] is described as follows: In vitro dissolution of direct compression tablets. The data set is classed as physicochemical. Particulars: pH 4.5 citrate buffer, 100 mg free base equivalents. The procedure:
The performance of the solid dosage forms was evaluated in vitro prior to the in-vivo dog study commencing.

Data set [3] can be described thus: Intrinsic dissolution rate in aqueous buffers. It counts as physicochemical. The following applies: for Intrinsic Dissolution Rate: 37° C. Here is the method:
(x) intrinsic dissolution rate was measured in a dissolution bath coupled to a fibre optic uv detector.

The nature of data set [4]: Pharmacokinetic study in dogs. It counts as in vivo, Male Beagle Dogs. Particulars: dog, n = 4, mean ± SE; for AUC(0-t): read-out: AUC(0-48).
A further data set addresses ErbB2 (Homo sapiens, UniProt P04626). Nature of the data set: p-ErbB2 ELISA in HRG-stimulated MCF-7 cells. It counts as cell-based. Particulars: 90 minutes treatment, bracket = confidence interval ratio, read-out: p-ErbB2 Geo Mean IC50 (95% CIR).
The test system of another data set is ErbB3. The data set can be described thus: p-ErbB3 ELISA in HRG-stimulated MCF-7 cells. It counts as cell-based, Human. Particulars: 90 minutes treatment, bracket = confidence interval ratio, read-out: p-ErbB3 Geo Mean IC50 (95% CIR). The procedure:
KB cells and MCF-7 cells were obtained from the American Type Culture Collection (ATCC) and routinely cultured in RPMI 1640 (Phenol red free)+10% Foetal Bovine Serum+2 mM L-Glutamine. KB cells were seeded at 5000 cells/well and MCF-7 cells at 4000 cells/well in 96 well plates in RPMI 1640 media containing 10% FBS. Cells were incubated for 72 hours before replacing the media with serum-free RPMI 1640 media for 24 hours. […] Immediately before cell lysis, MCF-7 and KB cells were incubated for 5 minutes with ligand (heregulin (“HRG”) for the MCF-7 cells and epidermal growth factor (“EGF”) for the KB cells) at concentrations required to increase receptor phosphorylation to 90% of max (ED90) to allow inter-assay comparison. The p-EGFR status of KB cells was measured using the Human phospho-EGFR Duoset ELISA kit (R&D systems total EGFR #DYC1854, pEGFR #DYC1095). The p-ErbB2 and p-ErbB3 content of MCF-7 cells were measured using the Human phospho-ErbB2 Duoset ELISA kit (R&D systems, DYC1768) and Human phospho-ErbB3 Duoset ELISA kit (R&D systems, DYC1769) respectively. The kits measured whole cell tyrosine phosphorylation of EGFR, ErbB2 or ErbB3. Assays were performed according to the manufacturers instructions, with 50 μl lysate added per well.

Data set [5] is described as follows: Cellular permeability / BCS classification. It counts as in vitro ADME.
Data set [6] concerns MCF-7 cells. Nature of the data set: HRG-stimulated MCF-7 cell proliferation assay (MTS). Particulars: Homo sapiens, MCF7, 96 h, 10 ng/ml HRG, 4 days, basal growth subtracted, read-out: HRG-stimulated proliferation Geo Mean IC50. The data set is classed as cell-based.
In data set [7] the test system is MCF-7 cells. The data set can be described thus: Basal MCF-7 cell proliferation assay (MTS). It counts as cell-based. The following applies: Homo sapiens, MCF7, 96 h, unstimulated, 4 days, read-out: Basal proliferation Geo Mean GI50. Here is the method:
MCF-7 cells were routinely cultured in DMEM (Phenol red free)+10% Foetal Bovine Serum+2 mM L-Glutamine. […] Basal wells were unstimulated with ligand. After incubation for 4 days, cell viability was assessed using a 3-(4,5-dimethylthiazol-2-yl)-5-(3-carboxymethoxyphenyl)-2-(4-sulfophenyl)-2H-tetrazolium (MTS) assay. Prior to IC50 determination of HRG-stimulated compound-treated cells, mean basal growth at 96 hours was subtracted from each of the readouts so that proliferation driven through HRG-signalling was assessed. Basal IC50 values are expressed as GI50 i.e. the day 0 plate cell number (baseline reading) was subtracted from the readout at 96 hours later.

Where [8] appears, read: oral direct compressed tablet, 100 mg free form equivalent.
Setting [9] is: oral direct compressed tablet, 100 mg free form equivalent, versus IV 20 mg.
The mark [10] stands for this setting: male, beagle, plasma, oral direct compressed tablet, 100 mg free form equivalent.

ErbB2, sequence (P04626 23-1255): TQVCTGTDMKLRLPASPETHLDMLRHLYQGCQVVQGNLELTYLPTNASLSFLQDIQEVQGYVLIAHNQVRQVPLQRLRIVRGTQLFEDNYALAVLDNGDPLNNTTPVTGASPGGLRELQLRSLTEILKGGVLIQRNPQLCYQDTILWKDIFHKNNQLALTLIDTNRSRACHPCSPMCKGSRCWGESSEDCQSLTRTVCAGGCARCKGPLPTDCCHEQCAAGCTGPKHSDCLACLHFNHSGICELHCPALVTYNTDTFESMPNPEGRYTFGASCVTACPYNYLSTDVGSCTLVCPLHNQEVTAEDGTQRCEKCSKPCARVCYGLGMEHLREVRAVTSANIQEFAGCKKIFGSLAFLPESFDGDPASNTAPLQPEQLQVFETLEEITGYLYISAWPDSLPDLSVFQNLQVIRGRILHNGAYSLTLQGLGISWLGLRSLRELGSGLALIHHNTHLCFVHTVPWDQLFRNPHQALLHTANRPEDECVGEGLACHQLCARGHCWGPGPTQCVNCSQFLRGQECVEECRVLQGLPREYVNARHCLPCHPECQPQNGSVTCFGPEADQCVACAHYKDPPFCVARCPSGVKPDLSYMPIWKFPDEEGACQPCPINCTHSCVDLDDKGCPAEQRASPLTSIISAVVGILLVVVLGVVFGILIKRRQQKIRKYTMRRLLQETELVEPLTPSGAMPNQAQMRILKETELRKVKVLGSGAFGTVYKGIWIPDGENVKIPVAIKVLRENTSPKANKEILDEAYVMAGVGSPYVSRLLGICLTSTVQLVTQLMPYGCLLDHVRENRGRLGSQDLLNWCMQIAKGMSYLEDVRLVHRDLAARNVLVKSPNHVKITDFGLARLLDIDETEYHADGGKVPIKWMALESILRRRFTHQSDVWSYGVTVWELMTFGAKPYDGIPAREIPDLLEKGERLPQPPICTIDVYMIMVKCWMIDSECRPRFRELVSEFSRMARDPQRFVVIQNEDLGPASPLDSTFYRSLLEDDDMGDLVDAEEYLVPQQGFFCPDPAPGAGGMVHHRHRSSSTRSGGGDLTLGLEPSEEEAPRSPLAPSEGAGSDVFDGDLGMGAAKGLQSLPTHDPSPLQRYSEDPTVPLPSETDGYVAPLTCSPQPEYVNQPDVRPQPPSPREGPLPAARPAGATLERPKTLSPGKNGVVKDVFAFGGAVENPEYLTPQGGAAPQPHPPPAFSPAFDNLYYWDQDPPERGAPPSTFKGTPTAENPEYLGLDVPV

On to `CNC(=O)CN1CCC(Oc2cc3c(Nc4cccc(Cl)c4F)ncnc3cc2OC)CC1.O=C(O)/C=C/C(=O)O.O=C(O)/C=C/C(=O)O` [Compound (I) difumarate Form A, 2-[4-({4-[(3-Chloro-2-fluorophenyl)amino]-7-methoxyquinazolin-6-yl}oxy)piperidin-1-yl]-N-methylacetamide di-[(2E)-but-2-enedioate] Form A], for which the “hygroscopicity (in words)” value in the data set “Dynamic vapour sorption” was “non-hygroscopic”. Further, in the data set “Dynamic vapour sorption” (up to 95% relative humidity, 25° C.), the “moisture absorbed (Dynamic Vapour Sorption)” value is reported as less than 0.5%. For the same compound, the solubility in water in data set [1] (pH 3.5) was 22500 µg/mL. The “% Dissolution at 45 minutes” value in [2] was 100.3%. In addition, in data set [3] (SGF (Simulated Gastric Fluid)), the “Intrinsic Dissolution Rate” value is recorded as 15.9 mgmin^−1cm^−2. Moreover, in data set [3] (pH 6.5 phosphate buffer), the “Intrinsic Dissolution Rate” value came out at 2.51 mgmin^−1cm^−2. In data set [4] (setting [8]), the “AUC(0-48)” value is 190.3 ± 46.9 µM·h, the Cmax turned out to be 32.6 ± 3.6 µM, the Tmax was determined as 1.1 ± 0.3 h and the half-life is reported as 16.9 ± 4.0 h. Moreover, in data set [4] (setting [9]), the “Bioavailability(0-48 h)” value is recorded as 113%. The “Bioavailability(0-48 h)” value in data set [4] (oral direct compressed tablet, 100 mg free form equivalent, versus IV 20 mg, listed as Difumarate Form A) amounted to 112.5 ± 8.1%.
With `CNC(=O)CN1CCC(Oc2cc3c(Nc4cccc(Cl)c4F)ncnc3cc2OC)CC1` [Compound (I), 4-(3-chloro-2-fluoroanilino)-7-methoxy-6-{[1-(N-methylcarbamoylmethyl)piperidin-4-yl]oxy}quinazoline], the “hygroscopicity (in words)” value in “Dynamic vapour sorption” is on record as “moderately hygroscopic”. Moreover, the “moisture uptake (Dynamic Vapour Sorption)” value in “Dynamic vapour sorption” (at 80% relative humidity, 25° C.) is “approximately 1.9 % w/w”. The values for the IC50 on ErbB2, in the data set on ErbB3 and with MCF-7 cells [6] were 3 nM, 4 nM and 61 nM, respectively. Besides, the solubility at 48 h in data set [1] (aqueous buffer, pH 2.7, 48 hours, read-out: solubility in aqueous buffer) came to 27200 µg/mL (≈ 57400 µM); in data set [1] (aqueous buffer, pH 7.9, 48 hours, read-out: solubility in aqueous buffer) it was 1 µg/mL (≈ 2.11 µM); in data set [1] (water, 48 hours, pH 7.0, read-out: solubility in water), 1 µg/mL (≈ 2.11 µM). Besides, in data set [2], the “% Dissolution at 45 minutes” value amounted to 93.6%. The “cellular permeability (in words)” value in data set [5] is recorded as “high”. Further, the BCS classification result in [5] (suggested by low solubility and high permeability) was “Class II”. In the data set on MCF-7 cells [7], the GI50 is 1090 nM. Moreover, the “Intrinsic Dissolution Rate” value in [3] (SGF (Simulated Gastric Fluid)) was 19.2 mgmin^−1cm^−2; in data set [3] (pH 6.5 phosphate buffer), 0.01 mgmin^−1cm^−2. For the same compound, the “intrinsic dissolution rate (in words)” value in [3] (particularly at pH below 6.0) is recorded as “relatively low”. Further, the “Bioavailability(0-48 h)” value in data set [4] (setting [9]) came out at 63.5 ± 7.0%. For the same compound, the bioavailability in data set [4] (male, beagle, plasma, oral, 100 mg, oral direct compressed tablet, 100 mg free form equivalent, versus IV 20 mg, read-out: Bioavailability(0-48 h)) was determined as 64%. Also, the Cmax was 9 ± 1.1 µM in data set [4] (male, beagle, plasma, IV 20 mg) and 14 ± 1.7 µM in [4] (setting [10]). Also, the AUC(0-t) was 33.4 ± 7.7 µM·h in [4] (male, beagle, plasma, IV 20 mg) and 104 ± 25.3 µM·h in data set [4] (setting [10]). The clearance in [4] (male, beagle, plasma, IV 20 mg, read-out: Cl (Clearance)) was found to be 1.9 ± 0.5 mL/min/kg. The half-life in data set [4] (male, beagle, plasma, IV 20 mg, read-out: Half-life (converted)) is 5.3 ± 0.2 h; in [4] (male, beagle, plasma, oral direct compressed tablet, 100 mg free form equivalent, read-out: Half-life (converted)), 8.2 ± 0.6 h. In addition, the time of peak concentration (Tmax) in data set [4] (male, beagle, plasma, IV 20 mg, read-out: Tmax) was 0.2 h; in data set [4] (male, beagle, plasma, oral direct compressed tablet, 100 mg free form equivalent, read-out: Tmax), 1.6 ± 0.8 h. Also, the Vd in data set [4] (male, beagle, plasma, IV 20 mg, read-out: Vss (Volume of distribution at steady state)) was determined as 0.6 ± 0.1 L/kg.
